Here are results for five molecules from patent US8410064B2, “Classical cannabinoid metabolites and methods of use thereof” (priority 2009, dated 2013).

The target in data set [1] is T1, recombinant human UGT1A10 (Homo sapiens, UniProt Q9HAW8).
T1 sequence (Q9HAW8 26-530): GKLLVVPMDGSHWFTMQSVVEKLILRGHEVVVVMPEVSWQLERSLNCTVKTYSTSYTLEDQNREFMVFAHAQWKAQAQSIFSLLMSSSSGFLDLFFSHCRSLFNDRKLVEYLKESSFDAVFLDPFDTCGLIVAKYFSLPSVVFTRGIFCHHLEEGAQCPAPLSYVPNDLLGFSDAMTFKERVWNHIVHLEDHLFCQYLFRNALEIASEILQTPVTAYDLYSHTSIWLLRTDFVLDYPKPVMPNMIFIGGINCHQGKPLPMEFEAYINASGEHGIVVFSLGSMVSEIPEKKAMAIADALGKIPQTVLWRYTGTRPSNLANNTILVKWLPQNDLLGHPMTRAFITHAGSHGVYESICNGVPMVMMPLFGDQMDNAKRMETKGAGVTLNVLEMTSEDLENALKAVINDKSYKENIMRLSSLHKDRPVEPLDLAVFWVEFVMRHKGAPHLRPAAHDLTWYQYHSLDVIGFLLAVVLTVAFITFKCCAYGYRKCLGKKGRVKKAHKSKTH
As to the kind of experiment: Glucuronidation by recombinant UGT1A10 (activity screen and steady-state kinetics). The note with it: for glucuronidation activity (initial screen): 750 μM substrate, 90 min.

Data set [2] deals with T2, recombinant human UGT1A1 (Homo sapiens, UniProt P22309).
T2 sequence (P22309 26-533): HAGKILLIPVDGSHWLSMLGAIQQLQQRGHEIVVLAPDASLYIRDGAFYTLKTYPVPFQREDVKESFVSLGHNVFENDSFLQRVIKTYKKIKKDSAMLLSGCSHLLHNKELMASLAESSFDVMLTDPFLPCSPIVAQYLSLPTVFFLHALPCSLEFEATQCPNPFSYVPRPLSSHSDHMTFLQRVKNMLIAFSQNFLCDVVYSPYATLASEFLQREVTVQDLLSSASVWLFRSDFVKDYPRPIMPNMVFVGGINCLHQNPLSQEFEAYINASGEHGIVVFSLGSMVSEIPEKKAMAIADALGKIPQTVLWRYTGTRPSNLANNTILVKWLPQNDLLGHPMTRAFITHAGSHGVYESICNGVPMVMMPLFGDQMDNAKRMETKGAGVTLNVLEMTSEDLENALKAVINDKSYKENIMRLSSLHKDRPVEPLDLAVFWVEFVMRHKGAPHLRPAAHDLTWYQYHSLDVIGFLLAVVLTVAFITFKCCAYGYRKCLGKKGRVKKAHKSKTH
The data set can be described thus: Glucuronidation by recombinant UGT1A1 (activity screen and steady-state kinetics). The note with it: UDP-GlcUA 4 mM.

The test system of data set [3] is human liver microsomes. As to the kind of experiment: Glucuronidation by human liver microsomes (activity screen). Particulars: human liver microsomes (HLM); 750 μM substrate, UDP-GlcUA 4 mM, 90 min. (Microsomes from liver hold many membrane-bound enzymes, among them those of drug oxidation.)
Data set [4] deals with T3, recombinant human UGT1A3 (Homo sapiens, UniProt P35503).
T3 sequence (P35503 29-534): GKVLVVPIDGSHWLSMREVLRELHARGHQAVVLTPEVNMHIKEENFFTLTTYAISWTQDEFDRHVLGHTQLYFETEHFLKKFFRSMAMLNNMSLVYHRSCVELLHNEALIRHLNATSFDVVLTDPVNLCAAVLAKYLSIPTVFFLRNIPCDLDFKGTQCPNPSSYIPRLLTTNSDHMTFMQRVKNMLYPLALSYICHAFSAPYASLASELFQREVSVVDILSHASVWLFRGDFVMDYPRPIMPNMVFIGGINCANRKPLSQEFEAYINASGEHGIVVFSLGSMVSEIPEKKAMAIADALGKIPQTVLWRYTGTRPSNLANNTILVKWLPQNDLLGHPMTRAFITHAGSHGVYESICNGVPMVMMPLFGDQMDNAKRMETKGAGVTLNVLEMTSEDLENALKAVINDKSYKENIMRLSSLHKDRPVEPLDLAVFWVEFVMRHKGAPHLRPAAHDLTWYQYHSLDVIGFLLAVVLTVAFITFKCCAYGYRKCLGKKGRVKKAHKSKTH
As to the kind of experiment: Glucuronidation by recombinant UGT1A3 (activity screen and steady-state kinetics). The note with it: UDP-GlcUA 4 mM.

The subject of data set [5] is human UGTs. The data set can be described thus: LC-MS/MS confirmation of glucuronidated products. It is filed as in vitro ADME. The note with it: recombinant protein, 750 μM substrate, UDP-glucuronic acid 4 mM, 180 min, negative ion mode. As to the method:
FIG. 3 depicts a series of graphs illustrating RP-HPLC chromatographs of glucuronidated-product ion experiments. Tracings represent organic-soluble metabolites generated during incubation of recombinant protein with UDP-glucuronic acid (4 mM) and 750 μM of each substrate (A) Δ^9-THC, (B) CBN, (C) 11-OH-THC, (D) CBD, and (E) COOH-THC. Each substrate was incubated individually for 180 min. Control reactions omitted the respective substrate. MS/MS data were obtained in negative ion mode, as described in the Examples.
Liquid chromatography-tandem mass spectrometry (LC-MS/MS) analyses for product confirmation were performed using an Agilent 1100 HPLC system (Santa Clara. Calif.) which was interfaced with an API 4000 triple quadrupole (MS/MS) mass spectrometer (Applied Biosystems. Foster City. Calif.). Instrument operation and data acquisition was controlled through the Analyst software package (Version 1.4.2, Applied Biosystems). The HPLC system consisted of an autosampler, a binary pump, and a column oven. […]
Trace amounts of glucuronidated product was detected for all the substrates, but in some cases, where kinetic information could not be obtained, the physiological significance remains to be determined. […] In particular, the presence of bis- and/or diglucuronidated products was not detected.

The target in data set [6] is T4, recombinant human UGT2B17 (Homo sapiens, UniProt O75795).
T4 sequence (O75795 24-530): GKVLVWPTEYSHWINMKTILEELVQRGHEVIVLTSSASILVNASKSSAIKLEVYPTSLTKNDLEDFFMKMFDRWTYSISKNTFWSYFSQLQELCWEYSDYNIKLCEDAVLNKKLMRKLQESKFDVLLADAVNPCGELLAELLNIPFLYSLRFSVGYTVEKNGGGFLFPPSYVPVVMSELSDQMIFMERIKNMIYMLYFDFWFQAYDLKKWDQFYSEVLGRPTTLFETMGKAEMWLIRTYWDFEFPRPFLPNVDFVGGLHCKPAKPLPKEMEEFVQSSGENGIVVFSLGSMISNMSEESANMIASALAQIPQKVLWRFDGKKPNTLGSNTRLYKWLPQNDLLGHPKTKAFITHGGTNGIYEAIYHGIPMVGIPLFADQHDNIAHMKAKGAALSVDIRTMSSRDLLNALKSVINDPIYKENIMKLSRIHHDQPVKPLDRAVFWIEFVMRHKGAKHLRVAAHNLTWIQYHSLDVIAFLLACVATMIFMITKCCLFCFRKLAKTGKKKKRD
As to the kind of experiment: Glucuronidation by recombinant UGT2B17 (activity screen). Particulars: 750 μM substrate, UDP-GlcUA 4 mM, 90 min.

In data set [7] the target is T5, recombinant human UGT1A9 (Homo sapiens, UniProt O60656).
T5 sequence (O60656 26-530): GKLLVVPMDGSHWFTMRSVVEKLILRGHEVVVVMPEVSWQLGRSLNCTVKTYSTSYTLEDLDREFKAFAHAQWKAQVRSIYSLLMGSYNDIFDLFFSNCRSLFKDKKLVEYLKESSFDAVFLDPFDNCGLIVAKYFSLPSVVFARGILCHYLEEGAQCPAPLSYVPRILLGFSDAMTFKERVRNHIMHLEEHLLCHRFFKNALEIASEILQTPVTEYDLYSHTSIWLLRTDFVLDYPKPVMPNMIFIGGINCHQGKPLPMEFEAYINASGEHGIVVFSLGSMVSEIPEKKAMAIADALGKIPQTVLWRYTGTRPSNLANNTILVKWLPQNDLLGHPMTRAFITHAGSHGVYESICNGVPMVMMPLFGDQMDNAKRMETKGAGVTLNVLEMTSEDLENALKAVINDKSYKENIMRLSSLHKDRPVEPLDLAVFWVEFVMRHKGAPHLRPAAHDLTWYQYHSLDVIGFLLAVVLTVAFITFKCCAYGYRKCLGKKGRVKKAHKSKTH
The data set can be described thus: Glucuronidation by recombinant UGT1A9 (activity screen and steady-state kinetics). The note with it: UDP-GlcUA 4 mM; for glucuronidation activity (initial screen): 750 μM substrate, 90 min.

Data set [8] has as its system human UGTs. The data set can be described thus: Glucuronidation activity across the tested human recombinant UGTs. The note with it: 12 human recombinant UGTs; 750 μM substrate, UDP-GlcUA 4 mM, 90 min.
Data set [9] has as its target T6, recombinant human UGT2B7 (Homo sapiens, UniProt P16662).
T6 sequence (P16662 24-529): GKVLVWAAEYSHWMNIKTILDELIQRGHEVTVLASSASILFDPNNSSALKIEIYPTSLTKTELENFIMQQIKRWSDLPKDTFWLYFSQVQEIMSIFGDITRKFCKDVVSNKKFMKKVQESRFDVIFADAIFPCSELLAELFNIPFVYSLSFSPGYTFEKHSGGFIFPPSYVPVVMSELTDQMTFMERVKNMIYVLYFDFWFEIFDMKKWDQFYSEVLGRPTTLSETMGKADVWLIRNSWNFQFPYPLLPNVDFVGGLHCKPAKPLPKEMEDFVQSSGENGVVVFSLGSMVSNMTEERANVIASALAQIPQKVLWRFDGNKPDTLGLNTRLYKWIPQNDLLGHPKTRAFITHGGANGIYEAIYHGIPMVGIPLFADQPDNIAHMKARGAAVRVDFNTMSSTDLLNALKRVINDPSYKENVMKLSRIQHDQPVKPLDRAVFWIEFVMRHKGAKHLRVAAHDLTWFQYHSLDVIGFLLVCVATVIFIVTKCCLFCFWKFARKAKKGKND
The data set can be described thus: Glucuronidation by recombinant UGT2B7 (activity screen). The note with it: 750 μM substrate, UDP-GlcUA 4 mM, 90 min.

Setting [10] is: 5 μg membrane protein, 37° C., 30 min, TLC.
The mark [11] stands for this setting: 5 μg membrane protein, 37° C., 30 min, TLC, normalized.

For `CCCCCc1cc(O)c2c(c1)OC(C)(C)c1ccc(C)cc1-2` [CBN, cannabinol], in data set [1] (UDP-GlcUA 4 mM), the “glucuronidation activity (initial screen)” value was “glucuronidated at high levels”. In addition, the “effectiveness of conjugation relative to 11-OH-THC” value in data set [1] (CBN versus 11-OH-THC) was 3 fold.

Regarding `CCCCCc1cc(O)c2c(c1)OC(C)(C)[C@@H]1CCC(C(=O)O)=C[C@@H]21` [COOH-THC, (−)-11-nor-9-carboxy-Δ^9-THC], the values for the Km in data set [2] (setting [10]) and in data set [4] (setting [10]) were 170 ± 37 µM and 68 ± 17 µM, respectively. For the same molecule, the Vmax in data set [2] (setting [11]) stood at 0.22 ± 0.02 nmol/mg protein/min; in [4] (setting [11]) it was 0.68 ± 0.06 nmol/mg protein/min. The “glucuronidation activity (initial screen)” value is “significant amount of activity” in data set [2] (750 μM substrate, 90 min); “significant amount of activity” in data set [3]; “highest activity” in data set [4] (750 μM substrate, 90 min).

Consider Δ^9-Tetrahydrocannabinol [(−)-Δ^9-THC], for which, in data set [5], the “glucuronidated product detected by LC-MS/MS” value is listed as “confirming the glucuronide production”.

Turning to `C=C(C)[C@@H]1CCC(C)=C[C@H]1c1c(O)cc(CCCCC)cc1O` [CBD, cannabidiol], the “glucuronidation activity (initial screen)” value in [6], in [7], in data set [3] and in data set [9] was “minimal amount of a glucuronidated CBD product” each time. The “glucuronidation activity (initial screen), overall” value in data set [8] is “limited”. For the same molecule, in data set [5], the “glucuronidated product detected by LC-MS/MS” value is recorded as “confirming the glucuronide production”.

As to (±)-11-hydroxy-Δ^9-THC [11-OH-THC], the Km in data set [7] (setting [10]) worked out at 73 ± 1.9 µM; in data set [1] (5 μg membrane protein, UDP-GlcUA 4 mM, 37° C., 30 min, TLC), 72 ± 19 µM. The Vmax in [7] (setting [11]) is 0.14 ± 0.01 nmol/mg protein/min; in data set [1] (5 μg membrane protein, UDP-GlcUA 4 mM, 37° C., 30 min, TLC, normalized) it was 0.33 ± 0.03 nmol/mg protein/min. In addition, the “glucuronidation activity (initial screen)” value in [7] and in data set [1] (UDP-GlcUA 4 mM) was “specifically glucuronidated” each time.

In general, Km refers to the concentration of substrate that gives half-maximal velocity.
